Assay: Crystallization test on glass slides at ambient temperature
Format: physicochemical
Conditions: comparison of compositions R1 and C2
Method: Number of glass slides per composition: 5 Protocol: • place the glass slides on a dark-coloured support; • deposit approximately 300 μl of the test composition on each glass slide, while spreading it on the central part of the glass slide (so as to avoid overspill); • leave the glass slide for 24 h in an environment at ambient temperature (approximately 20° C.). The following observations will be carried out: • the visual appearance (to the naked eye) of the compositions is observed after deposition thereof on a glass slide and reported in the observation table; • the visual appearance (to the naked eye) of the compositions is observed after 24 h at ambient temperature and is reported in the observation table while pointing out the possible presence and, where appropriate, the number of crystals present on the whole of the plate; • next, the plates are observed under polarized light and any crystals present are counted on the whole of the plate; an estimation of the size of the crystals is also carried out; • finally, the presence and the count of the crystals possibly present on each of the plates is reported in the observation table. […]

CC(COc1ccc(Oc2ccccc2)cc1)Oc1ccccn1 (stereo not shown) [pyriproxyfen, Pyriproxyfen]
effect of pyriproxyfen on crystallization of fipronil in the presence of permethrin at high concentration: substantially reduces the crystallization

— US9392792B1, “Topical combination of fipronil, permethrin and pyriproxyfen” (priority 2014, dated 2016)
